Key:
Assay type in all cases: functional
[1] = test system: A498; test: Growth inhibition of human A498 cells assessed as cell growth at 100 uM after 48 hrs by SRB assay relative to control; details: A498, 48 h, read-out: Activity
[2] = test system: NCI-H522; test: Growth inhibition of human NCI-H522 cells assessed as cell growth at 100 uM after 48 hrs by SRB assay relative to control; details: NCI-H522, 48 h, read-out: Activity
[3] = test system: Malme-3M; test: Growth inhibition of human MALME-3M cells assessed as cell growth at 0.1 uM after 48 hrs by SRB assay relative to control; details: read-out: Activity
[4] = test system: A549; test: Growth inhibition of human A549/ATCC cells assessed as cell growth at 1 uM after 48 hrs by SRB assay relative to control; details: A549, 48 h, read-out: Activity
[5] = test system: K562; test: Growth inhibition of human K562 cells assessed as cell growth at 0.1 uM after 48 hrs by SRB assay relative to control; details: K562, 48 h, read-out: Activity
[6] = test system: A498; test: Cytotoxicity against human A498 cells assessed as growth inhibition after 48 hrs by SRB assay; details: A498, 48 h
[7] = test system: M14; test: Growth inhibition of human M14 cells assessed as cell growth at 10 uM after 48 hrs by SRB assay relative to control; details: M14, 48 h, read-out: Activity
[8] = test system: CCRF-CEM; test: Cytotoxicity against human CCRF-CEM cells assessed as growth inhibition after 48 hrs by SRB assay
[9] = test system: PC-3; test: Growth inhibition of human PC3 cells assessed as cell growth at 0.01 uM after 48 hrs by SRB assay relative to control; details: PC-3, 48 h, read-out: Activity
[10] = test system: SN12C; test: Growth inhibition of human SN12C cells assessed as cell growth at 1 uM after 48 hrs by SRB assay relative to control; details: read-out: Activity
[11] = test system: HOP-62; test: Growth inhibition of human HOP62 cells assessed as cell growth at 0.01 uM after 48 hrs by SRB assay relative to control; details: HOP-62, 48 h, read-out: Activity
[12] = test system: UACC-257; test: Growth inhibition of human UACC257 cells assessed as cell growth at 0.1 uM after 48 hrs by SRB assay relative to control; details: UACC-257, 48 h, read-out: Activity
[13] = test system: SF-295; test: Growth inhibition of human SF295 cells assessed as cell growth at 100 uM after 48 hrs by SRB assay relative to control; details: SF-295, 48 h, read-out: Activity
[14] = test system: LOX IMVI; test: Growth inhibition of human LOXIMVI cells assessed as cell growth at 0.1 uM after 48 hrs by SRB assay relative to control; details: read-out: Activity
[15] = test system: SNB-75; test: Growth inhibition of human SNB75 cells assessed as cell growth at 0.1 uM after 48 hrs by SRB assay relative to control; details: SNB-75, 48 h, read-out: Activity
[16] = test system: OVCAR-8; test: Cytotoxicity against human OVCAR8 cells assessed as growth inhibition after 48 hrs by SRB assay; details: OVCAR-8, 48 h
[17] = test system: SF-539; test: Growth inhibition of human SF539 cells assessed as cell growth at 100 uM after 48 hrs by SRB assay relative to control; details: SF-539, 48 h, read-out: Activity
[18] = test system: MDA-MB-231; test: Growth inhibition of human MDA-MB-231/ATCC cells assessed as cell growth at 100 uM after 48 hrs by SRB assay relative to control; details: MDA-MB-231, 48 h, read-out: Activity
[19] = test system: HCC 2998; test: Growth inhibition of human HCC2998 cells assessed as cell growth at 100 uM after 48 hrs by SRB assay relative to control; details: HCC 2998, 48 h, read-out: Activity
[20] = test system: MDA-MB-468; test: Cytotoxicity against human MDA-MB-468 cells assessed as growth inhibition after 48 hrs by SRB assay; details: MDA-MB-468, 48 h
[21] = test system: SF-295; test: Growth inhibition of human SF295 cells assessed as cell growth at 1 uM after 48 hrs by SRB assay relative to control; details: SF-295, 48 h, read-out: Activity
[22] = test system: HCT-116; test: Cytotoxicity against human HCT116 cells assessed as growth inhibition after 48 hrs by SRB assay; details: HCT-116, 48 h
[23] = test system: DU-145; test: Growth inhibition of human DU145 cells assessed as cell growth at 0.1 uM after 48 hrs by SRB assay relative to control; details: DU-145, 48 h, read-out: Activity
[24] = test system: OVCAR-4; test: Cytotoxicity against human OVCAR4 cells assessed as growth inhibition after 48 hrs by SRB assay; details: OVCAR-4, 48 h
[25] = test system: HOP-62; test: Growth inhibition of human HOP62 cells assessed as cell growth at 100 uM after 48 hrs by SRB assay relative to control; details: HOP-62, 48 h, read-out: Activity
[26] = test system: COLO 205; test: Growth inhibition of human COLO205 cells assessed as cell growth at 1 uM after 48 hrs by SRB assay relative to control; details: COLO 205, 48 h, read-out: Activity
[27] = test system: NCI/ADR-RES; test: Cytotoxicity against human NCI-ADR-RES cells assessed as growth inhibition after 48 hrs by SRB assay
[28] = test system: HCC 2998; test: Growth inhibition of human HCC2998 cells assessed as cell growth at 1 uM after 48 hrs by SRB assay relative to control; details: HCC 2998, 48 h, read-out: Activity
[29] = read-out: LC50 (the source's name)
[30] = read-out: pLC50 (the source's name) (converted)

SMILES: COc1ccc2c(c1)CCc1n[nH]c(-c3cc(OC)c(OC)c(OC)c3)c1-2
- growth at 100 µM [1]: -61%
- growth at 100 µM [2]: -66%
- growth at 0.1 µM [3]: 48%
- growth at 1 µM [4]: 11%
- growth at 0.1 µM [5]: 19%
- GI50 ([6]; read-out: GI50): < 0.01 µM
- CC50 [6, 29]: 55.9 µM
- TGI ([6]; read-out: TGI): < 0.01 µM
- GI50 ([6]; read-out: pGI50 (converted)): < 0.01 µM
- CC50 [6, 30]: 56.2 µM
- TGI ([6]; read-out: pTGI): < 0.01 µM
- growth at 10 µM [7]: 2%
- GI50 ([8]; read-out: GI50): < 0.01 µM
- CC50 [8, 29]: > 100 µM
- TGI ([8]; read-out: TGI): > 100 µM
- GI50 ([8]; read-out: pGI50 (converted)): < 0.01 µM
- CC50 [8, 30]: > 100 µM
- TGI ([8]; read-out: pTGI): > 100 µM
- growth at 0.01 µM [9]: 20%
- growth at 1 µM [10]: 36%
- growth at 0.01 µM [11]: 11%
- growth at 0.1 µM [12]: 51%
- growth at 100 µM [13]: -61%
- growth at 0.1 µM [14]: 16%
- growth at 0.1 µM [15]: 31%
- GI50 ([16]; read-out: GI50): < 0.01 µM
- LC50 (concentration killing 50% of cells) ([16]; read-out: LC50): > 100 µM
- TGI ([16]; read-out: TGI): 15.4 µM
- GI50 ([16]; read-out: pGI50 (converted)): < 0.01 µM
- LC50 (concentration killing 50% of cells) ([16]; read-out: pLC50 (converted)): > 100 µM
- TGI ([16]; read-out: pTGI (converted)): 15.5 µM
- growth at 100 µM [17]: -78%
- growth at 100 µM [18]: -18%
- growth at 100 µM [19]: -80%
- GI50 ([20]; read-out: GI50): < 0.01 µM
- LC50 (concentration killing 50% of cells) ([20]; read-out: LC50): > 100 µM
- TGI ([20]; read-out: TGI): < 0.01 µM
- GI50 ([20]; read-out: pGI50 (converted)): < 0.01 µM
- LC50 (concentration killing 50% of cells) ([20]; read-out: pLC50 (converted)): > 100 µM
- TGI ([20]; read-out: pTGI): < 0.01 µM
- growth at 1 µM [21]: 5%
- GI50 ([22]; read-out: GI50): < 0.01 µM
- CC50 [22, 29]: 48.9 µM
- TGI ([22]; read-out: TGI): 1.16 µM
- GI50 ([22]; read-out: pGI50 (converted)): < 0.01 µM
- CC50 [22, 30]: 49 µM
- TGI ([22]; read-out: pTGI (converted)): 1.15 µM
- growth at 0.1 µM [23]: 10%
- GI50 ([24]; read-out: GI50): < 0.01 µM
- LC50 ([24]; read-out: LC50): > 100 µM
- TGI ([24]; read-out: TGI): 56.5 µM
- GI50 ([24]; read-out: pGI50 (converted)): < 0.01 µM
- LC50 ([24]; read-out: pLC50 (converted)): > 100 µM
- TGI ([24]; read-out: pTGI (converted)): 56.2 µM
- growth at 100 µM [25]: -76%
- growth at 1 µM [26]: -56%
- GI50 ([27]; read-out: GI50): < 0.01 µM
- LC50 ([27]; read-out: LC50): > 100 µM
- TGI ([27]; read-out: TGI): < 0.01 µM
- GI50 ([27]; read-out: pGI50 (converted)): < 0.01 µM
- LC50 ([27]; read-out: pLC50 (converted)): > 100 µM
- TGI ([27]; read-out: pTGI): < 0.01 µM
- growth at 1 µM [28]: 14%

Reference: ChEMBL document CHEMBL4346757, “Synthesis and biological evaluation of 7-methoxy-1-(3,4,5-trimethoxyphenyl)-4,5-dihydro-2H-benzo[e]indazoles as new colchicine site inhibitors” (Bioorg Med Chem Lett, 2019)
